Reference: US11607418B2, “Methods of treating SARS-CoV-2 infections” (Tyme, Inc., priority 2020, dated 2023)
≈ marks a conversion by molar mass, not a printed value.

What was measured:
[1] = tested on: SARS-CoV-2 (USA-WA1/2020 strain); assay: SARS-CoV-2 neutralization assay, cytopathic effects (CPE) in Vero E6 cells; format: cell-based; details: for Day 2 CPE / Day 4 CPE: 1.25 mg/mL, five replicate wells
[2] = tested on: SARS-CoV-2 infection / COVID-19; assay: TUDCA capsules taken by persons with or exposed to COVID-19; format: in vivo; details: 500 mg capsule twice per day
[3] = pre-incubation with virus 60 minutes
[4] = simultaneous addition of drug and virus, ~100 TCID50/well

With `C[C@H](CCC(=O)NCCS(=O)(=O)[O-])[C@H]1CC[C@H]2[C@@H]3[C@@H](O)C[C@@H]4C[C@H](O)CC[C@]4(C)[C@H]3CC[C@]12C.[Na+]` [Sodium TUDCA] the “Day 2 CPE” value [1, 3] was “no CPE”, the “Day 2 CPE” value [1, 4] was “no CPE” and the “Day 4 CPE” value [1, 4] was “no CPE”.

For `CC(CCC(=O)NCCS(=O)(=O)O)C1CCC2C3C(O)CC4CC(O)CCC4(C)C3CCC12C` (stereo not shown) [TUDCA acid, tauroursodeoxycholic acid], the EC50 ([1]; Severe acute respiratory syndrome coronavirus 2, Vero C1008, calculated by the Quest Graph EC50 Calculator, inhibition of SARS-CoV-2 CPE in Vero E6 cells) was 980 µg/mL (≈ 1960 µM), the “Day 2 CPE” value [1, 3] was “no CPE” and the “Day 2 CPE” value [1, 4] was “no CPE”. For the same compound, the “Day 4 CPE” value [1, 4] was “no CPE”.

`CC(CCC(=O)NCCS(=O)(=O)O)C1CCC2C3C(O)CC4CC(O)CCC4(C)C3CCC12C` (stereo not shown) [TUDCA, tauroursodeoxycholic acid] was tested, and the “Health outcome of member who tested positive for SARS-CoV-2 with COVID-19 symptoms” value ([2]; Example 2, oral, one rescue squad member) was “health returned to normal”, the “COVID-19 symptoms despite repeated exposure to COVID-19 patients” value ([2]; Example 2, twelve rescue squad members, at least 3 months) was “None of the other twelve members have presented with COVID-19 symptoms” and the “Health outcome of subject presenting with COVID-19 symptoms” value ([2]; Example 3, one subject) was “health returned to normal”.
